# Results: US20240383869A1, “ARYLACETYL INHIBITORS OF TG2 AND USES THEREOF” (UNIVERSITY OF OTTAWA, priority 2021, published 2024)
# Where two headings read alike, the source gives them in different places.
# What was measured:
# FXIIIa = target: T1, FXIIIa (Homo sapiens, UniProt P00488); assay: Fluorescence isopeptidase activity assay (A101 FRET-quenched probe), isozyme selectivity; assay type: biochemical; details: normalized [I]/α
# T1 construct: purchased Zedira
# T1 sequence (P00488 39-732 limits assumed): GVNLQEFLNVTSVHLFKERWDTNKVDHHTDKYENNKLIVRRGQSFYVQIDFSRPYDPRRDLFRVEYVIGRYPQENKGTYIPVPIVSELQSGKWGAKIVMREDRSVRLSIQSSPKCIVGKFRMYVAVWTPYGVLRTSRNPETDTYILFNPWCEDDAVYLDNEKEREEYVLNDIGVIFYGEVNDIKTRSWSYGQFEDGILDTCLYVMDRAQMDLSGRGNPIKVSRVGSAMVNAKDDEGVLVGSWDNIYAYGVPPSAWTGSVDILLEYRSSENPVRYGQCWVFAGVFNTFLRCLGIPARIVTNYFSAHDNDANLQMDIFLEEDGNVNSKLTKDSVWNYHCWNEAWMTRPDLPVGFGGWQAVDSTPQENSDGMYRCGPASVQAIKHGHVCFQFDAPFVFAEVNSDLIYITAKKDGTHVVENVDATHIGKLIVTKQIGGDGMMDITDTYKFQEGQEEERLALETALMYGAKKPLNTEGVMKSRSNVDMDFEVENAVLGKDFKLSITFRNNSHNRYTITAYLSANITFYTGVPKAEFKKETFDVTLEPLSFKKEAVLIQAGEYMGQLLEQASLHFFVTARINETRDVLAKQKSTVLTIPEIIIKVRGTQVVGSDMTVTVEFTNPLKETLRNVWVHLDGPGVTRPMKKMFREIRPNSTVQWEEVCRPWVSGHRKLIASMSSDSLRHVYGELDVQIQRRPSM
# Experimental: Fluorescence isopeptidase activity assay. The isopeptidase activity of pre-activated TG3a and FXIIIa (purchased from Zedira) was measured via a fluorescence-based assay as described (Kirily, R. et al., “Isopeptidase activity of human transglutaminase 2: disconnection from transamidation and characterization by kinetic parameters.” Amino Acids 2016, 48 (1), 31-40) using the commercially available peptidic FRET quenched probe A101. Briefly, the final concentration in the reaction mixture contained 50 mM Tris (pH 7.0), 10 mM CaCl2, 100 mM NaCl, 2.8 mM TCEP, 50 μM A101 and 14 mM H-Gly-OMe. The reaction was monitored at 25° C. using a BioTek Synergy 4 plate reader (Ex/Em: 318/413 nm). Enzymatic inhibition assays were run under Kitz and Wilson conditions (Kitz, R. and Wilson, I. B., “Esters of methanesulfonic acid as irreversible inhibitors of acetylcholinesterase.” J. Biol. Chem. 1962, 237, 3245-49), which were established for TG3a and FXIIIa at a substrate (A101) concentration of 50 μM using enzyme concentrations of 0.17 μM and 0.11 μM for TG3a and FXIIIa, respectively.
# hTG2 = target: T2, hTG2 (Homo sapiens, UniProt P21980); assay: biochemical; details: for inactivation of TG2: isozyme selectivity, normalized [I]/α; for Ki: read-out: KI (converted)
# T2 sequence (P21980 1-687): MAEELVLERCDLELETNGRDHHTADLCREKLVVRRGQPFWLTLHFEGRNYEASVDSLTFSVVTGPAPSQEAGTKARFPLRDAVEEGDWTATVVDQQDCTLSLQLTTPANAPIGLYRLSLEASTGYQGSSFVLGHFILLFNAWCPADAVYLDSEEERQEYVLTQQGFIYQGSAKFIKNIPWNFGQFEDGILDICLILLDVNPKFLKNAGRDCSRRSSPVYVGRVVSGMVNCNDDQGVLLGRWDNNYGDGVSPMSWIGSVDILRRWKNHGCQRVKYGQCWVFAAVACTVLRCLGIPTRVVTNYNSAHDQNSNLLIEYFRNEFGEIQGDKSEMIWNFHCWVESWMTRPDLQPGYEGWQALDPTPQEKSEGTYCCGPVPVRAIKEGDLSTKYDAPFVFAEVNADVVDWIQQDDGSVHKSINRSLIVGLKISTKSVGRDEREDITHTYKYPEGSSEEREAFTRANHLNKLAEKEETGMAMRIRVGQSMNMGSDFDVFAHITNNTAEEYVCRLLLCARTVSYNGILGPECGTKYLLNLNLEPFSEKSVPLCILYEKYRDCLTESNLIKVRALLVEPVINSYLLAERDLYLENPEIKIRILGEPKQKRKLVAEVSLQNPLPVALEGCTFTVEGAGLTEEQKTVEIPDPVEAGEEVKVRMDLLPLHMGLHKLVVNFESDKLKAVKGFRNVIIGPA
# [1] = fit to saturation kinetics model, 25° C., pH 6.95, 100 μM AL5
Structure (SMILES),inhibition of FXIIIa (FXIIIa),inactivation of TG2 (hTG2),kinact/KI (hTG2; pH 6.95) [M⁻¹ s⁻¹],Ki (hTG2; [1]) [µM],"kinact (hTG2; fit to saturation kinetics model, 25° C., pH 6.95, 100 μM AL5, read-out: kinact (converted)) [s⁻¹]","kinact/KI (hTG2; fit to saturation kinetics model, 25° C., pH 6.95, 100 μM AL5, read-out: kinact/KI (converted)) [M⁻¹ s⁻¹]"
"C=CC(=O)NCCCC[C@H](NC(=O)OCc1ccccc1)C(=O)N1CCN(C(=O)c2cccc3ccccc23)CC1 [AA9, reference compound]",none of these inhibitors showed any detectable inhibition,"inactivated TG2 almost completely, in less than five minutes",4070,,,
"C=CC(=O)NCCCC[C@H](NC(=O)Cc1ccccc1F)C(=O)N1CCN(C(=O)c2cccc3ccccc23)CC1 [Inhibitor 72, (S)-N-(6-(4-(1-naphthoyl)piperazin-1-yl)-5-(2-(2-fluorophenyl)acetamido)-6-oxohexyl)acrylamide]",none of these inhibitors showed any detectable inhibition,"inactivated TG2 almost completely, in less than five minutes",,1 ± 0.2,,
"C=CC(=O)NCCCC[C@H](NC(=O)Cc1ccccc1C)C(=O)N1CCN(C(=O)c2cccc3ccccc23)CC1 [Inhibitor 74, (S)-N-(6-(4-(1-naphthoyl)piperazin-1-yl)-5-(2-(2-methylphenyl)acetamido)-6-oxohexyl)acrylamide]",none of these inhibitors showed any detectable inhibition,"inactivated TG2 almost completely, in less than five minutes",,6.1 ± 1.8,0.035,5870
